Data as given in the supplement of paper PMC11061612.

Tests used:
Experiment in all cases: combination Emax (second highest fraction inhibited in the dose matrix, 72 h); higher = more inhibition; extreme values may be limits of the assay
[1] = test system: C-4-I (Cervical Carcinoma)
Outline: (§1)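 Cell lines in DMEM/F12 or RPMI with 10% FBS were plated in 1536-well plates, held 24 hours at 37°C, 5% CO2, then given two-drug dose matrices for 72 hours (DMSO typically 0.2%). Viability was read by CellTiter-Glo 2.0 luminescence and scaled as inhibition from 0 (vehicle wells) to 1 (blank wells). Combination Emax is the second-highest inhibition in the matrix; Bliss excess is observed combination effect minus expected EA + EB − EA·EB, EA and EB being single-agent effects.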

[2] = test system: YH-13 (Glioblastoma)
Outline: as §1

[3] = test system: NEC8 (Other Solid Carcinomas)
Outline: as §1

[4] = test system: KMOE-2 (Acute Myeloid Leukemia)
Outline: as §1

[5] = test system: MIA-PaCa-2 (Pancreatic Carcinoma)
Outline: as §1

[6] = test system: Ca9-22 (Head and Neck Carcinoma)
Outline: as §1

[7] = test system: BT-549 (Breast Carcinoma)
Outline: as §1

[8] = test system: EoL-1-cell (Acute Myeloid Leukemia)
Outline: as §1

[9] = test system: SCC-15 (Oral Cavity Carcinoma)
Outline: as §1

[10] = test system: EW-24 (Ewing's Sarcoma)
Outline: as §1

[11] = test system: HOP-62 (Lung Adenocarcinoma)
Outline: as §1

[12] = test system: PWR-1E (Non-Cancerous)
Outline: as §1

[13] = test system: D-263MG (Glioblastoma)
Outline: as §1

[14] = test system: NB69 (Neuroblastoma)
Outline: as §1

[15] = test system: PANC-04-03 (Pancreatic Carcinoma)
Outline: as §1

[16] = test system: EFM-19 (Breast Carcinoma)
Outline: as §1

[17] = test system: RF-48 (B-Cell Non-Hodgkin's Lymphoma)
Outline: as §1

[18] = test system: KARPAS-299 (T-Cell Non-Hodgkin's Lymphoma)
Outline: as §1

[19] = test system: SW13 (Other Solid Carcinomas)
Outline: as §1

[20] = test system: VA-ES-BJ (Other Solid Carcinomas)
Outline: as §1

Row | SMILES | combination Emax [1] | combination Emax [2] | combination Emax [3] | combination Emax [4] | combination Emax [5] | combination Emax [6] | combination Emax [7] | combination Emax [8] | combination Emax [9] | combination Emax [10] | combination Emax [11] | combination Emax [12] | combination Emax [13] | combination Emax [14] | combination Emax [15] | combination Emax [16] | combination Emax [17] | combination Emax [18] | combination Emax [19] | combination Emax [20]
1 | CC(=O)Nc1cccc(-n2c(=O)n(C3CC3)c(=O)c3c(Nc4ccc(I)cc4F)n(C)c(=O)c(C)c32)c1 [Trametinib] + Cc1nc(-c2cn3c(n2)-c2ccc(-c4cnn(C(C)(C)C(N)=O)c4)cc2OCC3)n(C(C)C)n1 [Taselisib] (first compound max 1 µM, 7x7, partner max 10 µM) | 0.94 | 0.916 | 0.674 | 1 | 0.887 | 0.936 | 0.497 | 1 | 1 | 0.6 | 0.778 | 0.864 | 0.943 | 1 | 0.89 | 0.665 | 0.345 | 0.639 | 0.929 | 0.687
2 | NC1(C(=O)N[C@@H](CCO)c2ccc(Cl)cc2)CCN(c2ncnc3[nH]ccc23)CC1 [Capivasertib] + CC(=O)c1c(C)c2cnc(Nc3ccc(N4CCNCC4)cn3)nc2n(C2CCCC2)c1=O [Palbociclib] (first compound max 10 µM, 7x7, partner max 10 µM) | 0.519 | 0.609 | 0.187 | 0.541 | 0.451 | 0.442 | 0.391 | 0.858 | 0.35 | 0.495 | 0.572 | 0.535 | 0.448 | 0.726 | 0.261 | 0.481 | 0.42 | 0.479 | 0.261 | 0.458
3 | Cc1c2c(nn1C)CSCc1cc(n(C)n1)CSc1cc(c3ccccc3c1)OCCCc1c(C(=O)O)n(C)c3c-2c(Cl)ccc13 [AZD5991] + Cc1cc2ncnn2cc1Nc1ncc2c(n1)n(C1CCOCC1)c(=O)n2C [AZD7648] (first compound max 1 µM, 7x7, partner max 10 µM) | 1 | 0.351 | 0.339 | 0.74 | 0.354 | 0.214 | 0.329 | 1 | 0.25 | 0.258 | 0.281 | 0.247 | 0.75 | 0.779 | 0.342 | 0.629 | 0.262 | 1 | 0.861 | 0.221
4 | CC1(C)CCC(CN2CCN(c3ccc(C(=O)NS(=O)(=O)c4ccc(NCC5CCOCC5)c([N+](=O)[O-])c4)c(Oc4cnc5[nH]ccc5c4)c3)CC2)=C(c2ccc(Cl)cc2)C1 [Venetoclax] + Cn1cnc2c(F)c(Nc3ccc(Br)cc3Cl)c(C(=O)NOCCO)cc21 [Selumetinib] (first compound max 1 µM, 7x7, partner max 3 µM) | 0.385 | 0.181 | 0.104 | 0.992 | 0.403 | 0.222 | 0.106 | 1 | 0.264 | 0.154 | 0.435 | 0.0808 | 0.119 | 0.919 | 0.354 | 0.232 | 0.286 | 0.812 | 0.317 | 0.123
5 | COc1cccc(OCCCN)c1-c1cc(Nc2cnc(C#N)cn2)n[nH]1 [Prexasertib] + O=C(c1cc(Cc2n[nH]c(=O)c3ccccc23)ccc1F)N1CCN(C(=O)C2CC2)CC1 [Olaparib] (first compound max 1 µM, 7x7, partner max 10 µM) | 0.929 | 0.804 | 0.968 | 0.974 | 0.797 | 0.991 | 0.654 | 1 | 0.482 | 0.696 | 0.606 | 0.71 | 0.762 | 0.896 | 0.49 | 0.354 | 0.726 | 1 | 0.39 | 0.837
6 | CC1(C)CCC(CN2CCN(c3ccc(C(=O)NS(=O)(=O)c4ccc(NCC5CCOCC5)c([N+](=O)[O-])c4)c(Oc4cnc5[nH]ccc5c4)c3)CC2)=C(c2ccc(Cl)cc2)C1 [Venetoclax] + COc1cc(Nc2ncc3c(n2)-c2ccc(Cl)cc2C(c2c(F)cccc2OC)=NC3)ccc1C(=O)O [Alisertib] (first compound max 1 µM, 7x7, partner max 10 µM) | 0.804 | 0.549 | 0.183 | 0.928 | 0.583 | 0.706 | 0.529 | 1 | 0.378 | 0.428 | 0.456 | 0.859 | 0.518 | 0.915 | 0.263 | 0.557 | 0.59 | 0.762 | 0.599 | 0.505
